From patent US20160368873A1, “Optically Active Form of Mepenzolate, and Ameliorating Agent for Chronic Obstructive Pulmonary Disease Which Contains Same as Active Ingredient” (LTT BIO-PHARMA CO., LTD., priority 2014, published 2016) come the findings set out here.

Series [1] relates to ICR mice. Kind of series: Effect on PPE-induced inflammation (3), cytokine and chemokines in BALF by ELISA (Test Example 4.3). Conditions: 38 μg/kg via the airway, PPE 20 U/kg, FIGS. 11 to 14. The series is classed as in vivo. The protocol:
The levels of cytokine and chemokine in broncho alveolar lavage fluid (BALF) were measured as indications of an effect on PPE-induced inflammation.
Specifically, TNF-α ([…]), which is a pro-inflammatory cytokine, was measured as a cytokine that is an inflammatory factor and a macrophage inflammatory protein (MIP-2), a monocyte chemotactic protein (MCP-1), and a keratinocyte-derived chemokine (KC) were measured as an inflammatory chemokine.
The measurement of such a cytokine and chemokines in the BALF was performed by ELISA.
(In general: ELISA stands for enzyme-linked immunosorbent assay.)

In series [2] the target is T1, human M3 muscarinic receptor (Homo sapiens, UniProt P20309).
T1 construct: expressed in transfected cells; host or cells: CHO-K1 cells (membrane fraction)
Description: Receptor binding ability (in vitro) (1), [3H]NMS competitive inhibition (Test Example 2.1). The settings on record: CHO-K1 membrane fraction, 2.0 nM [3H]NMS. The protocol:
Nonspecific binding was measured in the presence of 1 μM atropine.
The resulting filter, which was dried and a solid scintillator, MeltiLex A (manufactured by PerkinElmer, Inc.) was melted thereon, was measured and quantified by using a β-counter (MicroBeta microplate scintillation counter (Trilux: manufactured by PerkinElmer, Inc.).

Series [3] deals with ICR mice. Kind of series: Effect on porcine pancreatic elastase (PPE)-induced inflammation (1) (Test Example 4.1). The series is classed as in vivo. Conditions: 38 μg/kg via the airway once, PPE 100 μg per mouse 1 h later, BALF 24 h after PPE, FIG. 8. The protocol: Then, broncho alveolar lavage fluid (BALF) was collected from the lung 24 hours after administration of porcine pancreatic elastase and a total cell count and a neutrophil count were measured.

In series [4] the test system is ICR mice. Kind of series: Effect on porcine pancreatic elastase (PPE)-induced inflammation (2) (Test Example 4.2). The series is classed as in vivo. The settings on record: 7.5 μg/kg and 38 μg/kg via the airway once, PPE 20 U/kg 1 h later, BALF 6 h after PPE; for Total cell count in BALF: FIG. 9; for Neutrophil count in BALF: FIG. 10. The protocol: Then, broncho alveolar lavage fluid (BALF) was collected from the lung 6 hours after administration of porcine pancreatic elastase. The BALF was collected by washing the lung twice with saline containing heparin (50 U/mL) with the aid of a tracheostomy tube.
A total cell count of the collected BALF was measured by hemocytometer. The cells were centrifuged by using Cytospin 4 (registered trademark, manufactured by Thermo Electron Corporation) and then fixed with Diff-Quik reagent, and the neutrophil count was determined on the basis of the ratio of the neutrophil count to the total cell count.

In series [5] the test system is ICR mice. Kind of series: Fecal pellet output (level of constipation occurrence) after application of stress (Test Example 5). The series is classed as in vivo. The settings on record: 4.7 mg/kg intratracheally, 1 h later one-hour restraint stress, FIG. 15. The procedure:
4 to 6 week old ICR mice were put under stress by placing the mice in a 50 mL tube for one hour, the tube ensuring free breathing but restraining free movement, and the fecal pellet output (the level of constipation occurrence) at that time was measured.
The level of constipation occurrence was monitored by measuring the fecal pellet output during the above-mentioned period.

Series [6] has as its system ICR mice. Description: Effect on methacholine-induced airway constriction (2) (Test Example 3.2). The series is classed as in vivo. Conditions: 3.8 μg/kg via the airway, 1 h before nebulized methacholine, FIG. 7. The protocol: (§1) Increase in airway resistance induced by methacoline was measured.
4 to 6 week old ICR mice were anesthetized with chloral hydrate (500 mg/kg), a tracheostomy was performed, and a metal tube […] in diameter was inserted into the trachea.
The mice were mechanically ventilated at 150 respirations/minute with a displacement per one cycle of 8.7 mL/kg and a positive end-expiratory pressure of 2 to 3 cmH2O.
The mice were exposed to nebulized methacholine (5 mg/kg) for 20 seconds four times at intervals of 40 seconds to induce airway resistance by methacholine, and the airway resistance was measured by a snap shot technique.
(§2) One hour after administration, the mice received five exposures to nebulized methacoline by the above-mentioned method and the airway resistance at the time of each administration was measured.
The data were analyzed by using FlexiVent software.

Series [7] deals with ICR mice. Kind of series: Effect on methacholine-induced airway constriction (1) (Test Example 3.1). The series is classed as in vivo. Conditions: 3.75 μg/kg via the airway, 1 h before nebulized methacholine, FIG. 5. The protocol:
as §1
4 to 6 week old ICR mice received 1 mg/mL methacoline by nebulization over 20 seconds and this was repeated five times. After each administration of methacoline was completed, the airway resistance was measured by a snap shot technique. All the data were analyzed by using FlexiVent software.
as §2

Series [8] in a line: Concentration in lung tissue after airway administration (Test Example 1). The settings on record: ICR mice, airway administration 20 mg/kg, chiral HPLC. The series is classed as in vivo. The procedure:
The test samples were divided into 300 μL aliquots and subjected to ultrafiltration using an Amicon ultra-0.5 centrifugal filter.
The HPLC conditions were as follows.
Detector: Waters 2695 Alliance separation module and Waters 2996 photodiode array detector (manufactured by Waters Corporation)
Eluent: Solvent A (Water containing 0.1 M hexafluorophosphate)/Solvent B (acetonitrile)
Mobile Phase: 70% Solvent A/30% Solvent B
Measuring wavelength: 220 nm

Series [9] concerns the target T2, human M3 muscarinic receptor (hM3R) (Homo sapiens, UniProt P20309).
T2 construct: expressed in transfected cells; host or cells: CHO-K1 cells (membrane fraction)
Description: Receptor binding ability (in vitro) (2), [3H]NMS competitive inhibition, hM3R (Test Example 2.2). Conditions: Table 2 and FIG. 3, compared to (R)-mepenzolate bromide and the racemate.
Description: Membrane fractions of CHO—K1 cells overexpressing a human M3 muscarinic receptor (hM3R) or CHO—K1 cells overexpressing a human M2 muscarinic receptor (hM2R) were used to measure receptor binding ability by competitive inhibition assay with 1-[N-methyl-^3H]scopolamine methyl bromide ([^3H]NMS, specific activity: 85.5 Cimmol). The protein concentration of the cell membrane was 10.0 μg/well and the [^3H]NMS concentration was 2.0 nM.
A binding buffer (phosphate buffer/saline) was added to the reagents to make a total volume of 200 μL. […]
The resulting filter was dried for 30 minutes, and then, fixed to a solid scintillator, MeltiLex A (melt-on scintillation sheet; manufactured by PerkinElmer, Inc.). The radioactivity remaining on the filter was measured in a MicroBeta Trilux microplate scintillation counter (manufactured by PerkinElmer, Inc.).
An experimental IC50 was calculated by using an experimentally obtained constant (κd) of [^3H]NMS for hM3R or hM2R and the concentration thereof, and then, the affinity at equilibrium was determined as a competitive equilibrium dissociation constant (κi) value. In this regard, the κi value was calculated from three individual curves and modified by using Prism (produced by GraphPad Software, Inc.).

T1 sequence (P20309 whole entry): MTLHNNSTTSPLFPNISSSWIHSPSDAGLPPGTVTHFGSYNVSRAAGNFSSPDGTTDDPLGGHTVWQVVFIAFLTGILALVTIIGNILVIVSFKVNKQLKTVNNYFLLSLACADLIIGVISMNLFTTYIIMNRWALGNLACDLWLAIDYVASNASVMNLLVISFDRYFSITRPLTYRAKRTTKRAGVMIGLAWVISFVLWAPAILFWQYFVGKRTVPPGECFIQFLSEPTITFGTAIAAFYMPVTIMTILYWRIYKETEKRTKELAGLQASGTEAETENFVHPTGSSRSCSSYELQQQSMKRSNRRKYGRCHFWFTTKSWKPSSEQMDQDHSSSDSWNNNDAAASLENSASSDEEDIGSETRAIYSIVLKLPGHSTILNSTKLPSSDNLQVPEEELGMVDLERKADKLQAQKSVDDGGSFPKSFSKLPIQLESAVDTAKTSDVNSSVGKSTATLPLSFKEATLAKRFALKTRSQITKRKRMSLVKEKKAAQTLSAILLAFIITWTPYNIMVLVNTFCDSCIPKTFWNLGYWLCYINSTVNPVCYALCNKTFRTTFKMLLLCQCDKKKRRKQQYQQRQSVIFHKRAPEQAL
T2 sequence (P20309 whole entry): as above

As to `C[N+]1(C)CCC[C@@H](OC(=O)C(O)(c2ccccc2)c2ccccc2)C1.[Br-]` (racemic) [racemate, mepenzolate bromide, reference compound], the “Inflammatory factors in BALF (TNF-α, MIP-2, MCP-1, KC)” value (“Inflammatory factors in BALF” for short) in series [1] is “decreased inflammatory factors effectively”. Moreover, the “Binding to the M3 receptor (FIG. 1), in words” value (“Binding to the M3 receptor” for short) in [2] was “bound strongly to the M3 receptor”. Further, in [3], the “Neutrophil count in BALF” value is given as “similarly effective” and the “Total cell count in BALF” value is reported as “similarly effective”. In addition, in series [4], the “Total cell count in BALF” value is on record as “effect of decreasing” and the “Neutrophil count in BALF” value is recorded as “effect of decreasing”.

As for `C[N+]1(C)CCC[C@@H](OC(=O)C(O)(c2ccccc2)c2ccccc2)C1.[Br-]` [R-form, (3R)-3-[(hydroxy) (diphenyl)acetoxy]-1,1-dimethylpiperidinium bromide], the “Inflammatory factors in BALF” value in series [1] was “decreased inflammatory factors effectively”. Moreover, the “Level of constipation occurrence (fecal pellet output)” value in [5] is recorded as “highest level of constipation occurrence”. For the same compound, the “Binding to the M3 receptor” value in [2] is on record as “bound strongly to the M3 receptor”. Besides, the “Effect of suppressing airway resistance (methacholine-induced), low dose” value in series [6] was “significant effect of suppressing airway resistance”. In addition, the “Effect of suppressing airway resistance (methacholine-induced)” value in [7] is “significant effect of suppressing airway resistance”. The “Concentration in lung tissue, (R)-Mep, 5 min.” value in series [8] (5 min after administration, (R)-Mep detected) was found to be 44.5 ± 11.5 μg/lung. The “Concentration in lung tissue, (R)-Mep, 15 min.” value in series [8] (15 min after administration, (R)-Mep detected) was determined as 6.3 ± 4.2 μg/lung. In addition, the “Concentration in lung tissue, (R)-Mep, 30 min.” value in [8] (30 min after administration, (R)-Mep detected) came out at 5.1 ± 1.3 μg/lung. In addition, in series [3], the “Neutrophil count in BALF” value is given as “relatively stronger effect of decreasing” and the “Total cell count in BALF” value is reported as “relatively stronger effect of decreasing”. Moreover, in [4], the “Total cell count in BALF” value is given as “effect of decreasing” and the “Neutrophil count in BALF” value was “effect of decreasing”.

As for `C[N+]1(C)CCC[C@H](OC(=O)C(O)(c2ccccc2)c2ccccc2)C1.[Br-]` [S-form, (3S)-3-[(hydroxy) (diphenyl)acetoxy]-1,1-dimethylpiperidinium bromide], the “Inflammatory factors in BALF” value in [1] was “decreased inflammatory factors effectively”. Further, the “Level of constipation occurrence (fecal pellet output)” value in [5] is reported as “low level of constipation occurrence”. For the same compound, the “Affinity to hM3R (M3 receptor), in words” value in series [9] is on record as “lower affinity”. Besides, the “Binding to the M3 receptor” value in series [2] is listed as “weaker binding ability”. In addition, the “Effect of suppressing airway resistance (methacholine-induced), low dose” value in [6] is “little effect”. The “Effect of suppressing airway resistance (methacholine-induced)” value in [7] is listed as “little effect”. For the same compound, in [8] (5 min after administration, (S)-Mep detected), the “Concentration in lung tissue, (S)-Mep, 5 min.” value came to 36.4 ± 9.5 μg/lung. The “Concentration in lung tissue, (S)-Mep, 15 min.” value in series [8] (15 min after administration, (S)-Mep detected) is recorded as 7.6 ± 0.5 μg/lung. Further, in [8] (30 min after administration, (S)-Mep detected), the “Concentration in lung tissue, (S)-Mep, 30 min.” value was found to be 6.2 ± 0.4 μg/lung. Besides, in series [3], the “Neutrophil count in BALF” value was “similarly effective” and the “Total cell count in BALF” value was “similarly effective”. Also, in [4], the “Total cell count in BALF” value is listed as “effect of decreasing” and the “Neutrophil count in BALF” value was “effect of decreasing”.
